According to patent US11945822B2, “Pyrazolo-triazine and/or pyrazolo-pxrimidine derivatives as selective inhibitor of cyclin dependent kinase” (QURIENT CO., LTD., priority 2018, dated 2024):

How the values were obtained:
Assay in all cases: In vitro IC50 profile for CDKs family kinase (33PanQinase radiometric assay)
Format in all cases: biochemical
Conditions in all cases: CDK7 selectivity profile in CDKs family
CDK1/CycA2 = target: T1, CDK1/CycA2 (Homo sapiens, UniProt P06493)
T1 construct: purchased ProQinase GmbH
Protocol: (§1) In Vitro IC50 Profile for CDK7 Inhibitor Among 28 CDKs Family Kinases.
(§2) The IC50 profile of compounds were determined using 28 CDKs family protein kinases through ProQinase GmbH (Freiburg, Germany). All the protocol and materials had been provided by ProQinase GmbH. Briefly, in the process, 90 μl H2O were added to each well of a compound dilution plate. To minimize potential precipitation, the H2O was added to the plate only a few minutes before the transfer of the compound solutions into the assay plates. The plate was shaken thoroughly, resulting in a “compound dilution plate/10% DMSO”. The compound dilution plate(s) were discarded at the end of the working day. For the assays (see below), 5 μl solution from each well of the compound dilution plate were transferred into the assay plates. The final volume of the assay was 50 μl. All compounds were tested at 10 final assay concentrations in the range from 1×10^−05 M to 3×10^−10 M. The final DMSO concentration in the reaction cocktails was 1% in all cases. All protein kinases provided by ProQinase were expressed in Sf9 insect cells or in E. coli as recombinant GST-fusion proteins or His-tagged proteins, either as full-length or enzymatically active fragments. All kinases were produced from human cDNAs and purified by either GSH affinity chromatography or immobilized metal affinity chromatography. The purity of the protein kinases was examined by SDS-PAGE/Coomassie staining, the identity was checked by mass spectroscopy. Kinases from external vendors, Carna Biosciences Inc.; Invitrogen Corp.; and Millipore Corp., were expressed, purified and quality-controlled by virtue of the vendors readings. A radiometric protein kinase assay (^33PanQinase® Activity Assay) was used for measuring the kinase activity of the 28 protein kinases. All kinase assays were performed in 96-well FlashPlates™ from PerkinElmer (Boston, MA, USA) in a 50 μl reaction volume. The reaction cocktails were incubated at 30° C. for 60 minutes. The reaction was stopped with 50 μl of 2% (v/v) H3PO4, plates were aspirated and washed two times with 200 μl 0.9% (w/v) NaCl. Incorporation of ^33Pi was determined with a microplate scintillation counter (Microbeta, Wallac). All assays were performed with a BeckmanCoulter/SAGIAN™ Core System. As part of the data evaluation the low control value from a particular plate was subtracted from the high control value as well as from all 80 “compound values” of the corresponding plate. The residual activity (in %) for each well of a particular plate was calculated by using the following formula: Res. Activity (%)=100×[(cpm of compound−low control)/(high control−low control)]. Results are represented in table (table 10).

CDK1/CycB1 = target: T2, CDK1/CycB1 (Homo sapiens, UniProt P06493)
T2 construct: purchased ProQinase GmbH
T2 sequence (P06493 whole entry): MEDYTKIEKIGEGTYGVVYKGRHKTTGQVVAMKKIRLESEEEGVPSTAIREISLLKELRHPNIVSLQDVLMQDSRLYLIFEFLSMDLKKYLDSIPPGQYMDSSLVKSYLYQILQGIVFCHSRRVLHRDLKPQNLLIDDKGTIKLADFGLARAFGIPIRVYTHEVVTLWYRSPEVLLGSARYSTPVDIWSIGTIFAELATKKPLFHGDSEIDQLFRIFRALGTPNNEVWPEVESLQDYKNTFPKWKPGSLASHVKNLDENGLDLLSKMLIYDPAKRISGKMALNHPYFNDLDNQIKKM
T2 sequence (P14635 whole entry partner): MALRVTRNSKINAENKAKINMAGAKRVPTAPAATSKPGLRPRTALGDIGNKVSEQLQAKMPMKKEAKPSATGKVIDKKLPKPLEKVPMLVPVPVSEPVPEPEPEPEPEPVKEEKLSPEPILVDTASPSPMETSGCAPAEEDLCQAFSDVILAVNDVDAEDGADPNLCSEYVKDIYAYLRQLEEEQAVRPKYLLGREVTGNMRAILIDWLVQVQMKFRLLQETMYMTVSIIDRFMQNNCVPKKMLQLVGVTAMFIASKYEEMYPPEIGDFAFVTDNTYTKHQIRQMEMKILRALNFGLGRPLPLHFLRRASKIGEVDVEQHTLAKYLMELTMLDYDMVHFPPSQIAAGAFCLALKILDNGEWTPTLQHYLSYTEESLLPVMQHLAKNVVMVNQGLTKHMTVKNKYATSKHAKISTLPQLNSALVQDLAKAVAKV
Protocol: as §1, §2

CDK1/CycE1 = target: T3, CDK1/CycE1 (Homo sapiens, UniProt P06493)
T3 construct: purchased ProQinase GmbH
T3 sequence (P06493 whole entry): as the sequence (P06493 whole entry) above
T3 sequence (P24864 whole entry partner): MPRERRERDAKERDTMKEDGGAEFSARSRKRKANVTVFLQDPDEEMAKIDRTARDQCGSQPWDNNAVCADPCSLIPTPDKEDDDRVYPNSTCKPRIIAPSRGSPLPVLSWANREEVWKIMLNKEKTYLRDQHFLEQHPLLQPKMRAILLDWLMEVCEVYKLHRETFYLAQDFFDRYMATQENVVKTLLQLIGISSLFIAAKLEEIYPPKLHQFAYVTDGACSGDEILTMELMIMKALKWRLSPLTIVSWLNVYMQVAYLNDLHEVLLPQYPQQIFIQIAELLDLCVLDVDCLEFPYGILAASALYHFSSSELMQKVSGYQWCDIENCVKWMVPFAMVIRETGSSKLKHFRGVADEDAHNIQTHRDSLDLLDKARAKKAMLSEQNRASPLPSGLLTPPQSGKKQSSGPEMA
Protocol: as §1, §2

CDK12 R722C/CycK = target: T4, CDK12 R722C/CycK (Homo sapiens, UniProt Q9NYV4, R722C)
T4 construct: either as full-length or enzymatically active fragments; purchased ProQinase GmbH (Freiburg, Germany)
Protocol: as §1, §2

CDK12 wt/CycK = target: T5, CDK12 wt/CycK (Homo sapiens, UniProt Q9NYV4)
T5 construct: purchased ProQinase GmbH
Protocol: as §1, §2

CDK13/CycK = target: T6, CDK13/CycK (Homo sapiens, UniProt Q14004)
T6 construct: either as full-length or enzymatically active fragments; purchased ProQinase GmbH (Freiburg, Germany)
Protocol: as §1, §2

CDK16/CycY = target: T7, CDK16/CycY (Homo sapiens, UniProt Q00536)
T7 construct: either as full-length or enzymatically active fragments; purchased ProQinase GmbH (Freiburg, Germany)
Protocol: as §1, §2

CDK17/p35NCK = target: T8, CDK17/p35NCK (Homo sapiens, UniProt Q00537)
T8 construct: either as full-length or enzymatically active fragments; purchased ProQinase GmbH (Freiburg, Germany)
Protocol: as §1, §2

CDK19/CycC = target: T9, CDK19/CycC (Homo sapiens, UniProt Q9BWU1)
T9 construct: either as full-length or enzymatically active fragments; purchased ProQinase GmbH (Freiburg, Germany)
T9 sequence (Q9BWU1 whole entry, the tested form may be a part): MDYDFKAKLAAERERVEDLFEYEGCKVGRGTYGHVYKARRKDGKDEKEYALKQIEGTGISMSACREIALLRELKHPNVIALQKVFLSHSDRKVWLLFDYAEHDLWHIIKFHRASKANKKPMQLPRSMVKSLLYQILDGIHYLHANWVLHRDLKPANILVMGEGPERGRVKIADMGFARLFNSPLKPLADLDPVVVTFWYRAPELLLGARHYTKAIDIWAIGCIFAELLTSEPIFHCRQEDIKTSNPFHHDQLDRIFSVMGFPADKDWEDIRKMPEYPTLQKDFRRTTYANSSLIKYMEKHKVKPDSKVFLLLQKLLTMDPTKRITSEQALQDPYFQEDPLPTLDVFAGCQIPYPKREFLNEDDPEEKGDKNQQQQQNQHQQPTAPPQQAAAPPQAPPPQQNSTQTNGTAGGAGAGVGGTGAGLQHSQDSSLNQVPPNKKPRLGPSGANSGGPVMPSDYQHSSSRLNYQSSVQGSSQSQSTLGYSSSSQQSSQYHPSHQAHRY
T9 sequence (P24863 whole entry partner, the tested form may be a part): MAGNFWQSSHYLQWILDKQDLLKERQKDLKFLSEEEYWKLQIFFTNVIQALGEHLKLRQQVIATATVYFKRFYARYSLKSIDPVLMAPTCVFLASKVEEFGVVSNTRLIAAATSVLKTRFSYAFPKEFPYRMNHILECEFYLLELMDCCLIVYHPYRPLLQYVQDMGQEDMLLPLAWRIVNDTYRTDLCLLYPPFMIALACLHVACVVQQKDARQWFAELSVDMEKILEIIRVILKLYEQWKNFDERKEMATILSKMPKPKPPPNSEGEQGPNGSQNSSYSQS
Protocol: as §1, §2

CDK2/CycA2 = target: T10, CDK2/CycA2 (Homo sapiens, UniProt P24941)
T10 construct: purchased ProQinase GmbH
Protocol: as §1, §2

CDK2/CycD1 = target: T11, CDK2/CycD1 (Homo sapiens, UniProt P24941)
T11 construct: purchased ProQinase GmbH
Protocol: as §1, §2

CDK20/CycH = target: T12, CDK20/CycH (Homo sapiens, UniProt Q8IZL9)
T12 construct: either as full-length or enzymatically active fragments; purchased ProQinase GmbH (Freiburg, Germany)
T12 sequence (Q8IZL9 whole entry, the tested form may be a part): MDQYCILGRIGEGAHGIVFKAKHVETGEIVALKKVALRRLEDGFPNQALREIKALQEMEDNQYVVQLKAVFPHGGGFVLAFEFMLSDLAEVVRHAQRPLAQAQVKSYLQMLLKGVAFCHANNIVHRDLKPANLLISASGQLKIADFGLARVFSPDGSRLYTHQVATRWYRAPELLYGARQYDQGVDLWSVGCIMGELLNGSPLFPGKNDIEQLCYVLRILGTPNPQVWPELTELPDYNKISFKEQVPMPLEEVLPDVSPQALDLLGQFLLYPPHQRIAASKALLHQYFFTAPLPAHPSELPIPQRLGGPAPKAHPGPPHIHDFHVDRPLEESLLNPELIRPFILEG
T12 sequence (P51946 whole entry partner, the tested form may be a part): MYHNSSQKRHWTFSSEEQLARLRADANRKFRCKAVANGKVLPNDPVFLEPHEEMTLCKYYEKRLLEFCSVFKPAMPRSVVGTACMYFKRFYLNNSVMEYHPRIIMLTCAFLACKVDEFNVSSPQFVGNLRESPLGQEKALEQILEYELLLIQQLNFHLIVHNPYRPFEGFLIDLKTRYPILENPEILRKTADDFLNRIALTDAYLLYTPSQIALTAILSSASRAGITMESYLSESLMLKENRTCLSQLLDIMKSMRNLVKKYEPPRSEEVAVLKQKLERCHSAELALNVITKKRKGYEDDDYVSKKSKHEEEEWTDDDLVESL
Protocol: as §1, §2

CDK20/CycT1 = target: T13, CDK20/CycT1 (Homo sapiens, UniProt Q8IZL9)
T13 construct: either as full-length or enzymatically active fragments; purchased ProQinase GmbH (Freiburg, Germany)
T13 sequence (Q8IZL9 whole entry, the tested form may be a part): as the sequence (Q8IZL9 whole entry, the tested form may be a part) above
T13 sequence (O60563 whole entry partner, the tested form may be a part): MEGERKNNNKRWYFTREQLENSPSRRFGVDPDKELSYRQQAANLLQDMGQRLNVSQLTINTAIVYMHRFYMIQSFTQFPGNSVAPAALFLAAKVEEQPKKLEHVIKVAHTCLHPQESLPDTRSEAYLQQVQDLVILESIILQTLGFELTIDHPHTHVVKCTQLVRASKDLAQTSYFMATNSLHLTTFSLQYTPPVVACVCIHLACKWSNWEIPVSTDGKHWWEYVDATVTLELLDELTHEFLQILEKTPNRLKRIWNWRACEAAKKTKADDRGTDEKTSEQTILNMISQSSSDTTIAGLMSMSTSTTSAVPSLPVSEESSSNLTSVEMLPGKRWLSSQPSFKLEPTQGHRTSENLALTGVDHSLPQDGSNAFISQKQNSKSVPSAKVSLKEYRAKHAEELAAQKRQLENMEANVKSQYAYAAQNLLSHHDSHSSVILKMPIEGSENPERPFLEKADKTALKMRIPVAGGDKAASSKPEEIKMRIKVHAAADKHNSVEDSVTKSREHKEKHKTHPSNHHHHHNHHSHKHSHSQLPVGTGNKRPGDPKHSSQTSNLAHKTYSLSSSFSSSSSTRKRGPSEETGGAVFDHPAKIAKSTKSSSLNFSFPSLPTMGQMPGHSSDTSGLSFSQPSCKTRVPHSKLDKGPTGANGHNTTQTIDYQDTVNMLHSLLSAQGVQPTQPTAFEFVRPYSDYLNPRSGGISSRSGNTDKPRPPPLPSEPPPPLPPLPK
Protocol: as §1, §2

CDK3/CycC = target: T14, CDK3/CycC (Homo sapiens, UniProt Q00526)
T14 construct: purchased ProQinase GmbH
Protocol: as §1, §2

CDK3/CycE1 = target: T15, CDK3/CycE1 (Homo sapiens, UniProt Q00526)
T15 construct: purchased ProQinase GmbH
Protocol: as §1, §2

CDK4/CycD1 = target: T16, CDK4/CycD1 (Homo sapiens, UniProt P11802)
T16 construct: purchased ProQinase GmbH
Protocol: as §1, §2

CDK4/CycD2 = target: T17, CDK4/CycD2 (Homo sapiens, UniProt P11802)
T17 construct: purchased ProQinase GmbH
T17 sequence (P11802 whole entry): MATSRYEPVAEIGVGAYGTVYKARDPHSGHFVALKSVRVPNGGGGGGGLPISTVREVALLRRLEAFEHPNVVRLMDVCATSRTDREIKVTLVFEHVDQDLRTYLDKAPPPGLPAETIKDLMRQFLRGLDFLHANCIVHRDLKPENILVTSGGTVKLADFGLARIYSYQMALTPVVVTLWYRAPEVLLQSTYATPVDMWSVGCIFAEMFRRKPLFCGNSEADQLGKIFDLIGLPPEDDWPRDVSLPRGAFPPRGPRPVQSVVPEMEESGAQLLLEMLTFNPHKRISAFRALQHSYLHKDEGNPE
T17 sequence (P30279 whole entry partner): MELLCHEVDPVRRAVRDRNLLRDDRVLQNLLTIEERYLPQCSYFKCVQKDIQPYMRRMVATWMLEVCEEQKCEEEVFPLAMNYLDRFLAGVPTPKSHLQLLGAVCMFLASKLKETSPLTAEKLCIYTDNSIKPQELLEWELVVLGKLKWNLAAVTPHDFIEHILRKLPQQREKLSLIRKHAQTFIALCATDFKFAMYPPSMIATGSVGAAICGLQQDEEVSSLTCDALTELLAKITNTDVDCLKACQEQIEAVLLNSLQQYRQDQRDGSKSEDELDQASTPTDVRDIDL
Protocol: as §1, §2

CDK4/CycD3 = target: T18, CDK4/CycD3 (Homo sapiens, UniProt P11802)
T18 construct: purchased ProQinase GmbH
Protocol: as §1, §2

CDK5/p25NCK = target: T19, CDK5/p25NCK (Homo sapiens, UniProt Q00535)
T19 construct: purchased ProQinase GmbH
Protocol: as §1, §2

CDK5/p35NCK = target: T20, CDK5/p35NCK (Homo sapiens, UniProt Q00535)
T20 construct: purchased ProQinase GmbH
Protocol: as §1, §2

CDK6/CycD1 = target: T21, CDK6/CycD1 (Homo sapiens, UniProt Q00534)
T21 construct: purchased ProQinase GmbH
Protocol: as §1, §2

CDK6/CycD2 = target: T22, CDK6/CycD2 (Homo sapiens, UniProt Q00534)
T22 construct: purchased ProQinase GmbH
Protocol: as §1, §2

CDK6/CycD3 = target: T23, CDK6/CycD3 (Homo sapiens, UniProt Q00534)
T23 construct: purchased ProQinase GmbH
Protocol: as §1, §2

CDK8/CycC = target: T24, CDK8/CycC (Homo sapiens, UniProt P49336)
T24 construct: purchased ProQinase GmbH
T24 sequence (P49336 whole entry): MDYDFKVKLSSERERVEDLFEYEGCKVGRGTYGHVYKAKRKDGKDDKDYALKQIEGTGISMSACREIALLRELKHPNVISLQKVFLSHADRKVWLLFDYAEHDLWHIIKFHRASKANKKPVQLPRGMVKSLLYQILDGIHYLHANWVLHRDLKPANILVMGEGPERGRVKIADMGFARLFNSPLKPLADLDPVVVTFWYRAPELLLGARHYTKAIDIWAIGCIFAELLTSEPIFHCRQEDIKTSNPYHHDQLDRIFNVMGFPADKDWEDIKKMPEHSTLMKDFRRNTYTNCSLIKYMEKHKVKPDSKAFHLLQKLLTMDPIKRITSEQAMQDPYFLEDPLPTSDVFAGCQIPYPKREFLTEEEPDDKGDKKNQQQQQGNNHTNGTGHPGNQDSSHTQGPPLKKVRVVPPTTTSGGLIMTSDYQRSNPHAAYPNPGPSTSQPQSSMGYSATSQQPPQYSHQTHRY
T24 sequence (P24863 whole entry partner): as the sequence (P24863 whole entry partner, the tested form may be a part) above
Protocol: as §1, §2

CDK9/CycK = target: T25, CDK9/CycK (Homo sapiens, UniProt P50750)
T25 construct: purchased ProQinase GmbH
Protocol: as §1, §2

Question: What does the source list for `CC(C)c1cnn2c(NCc3c(Cl)cccc3-n3ccc(C(C)(C)O)n3)nc(N3CCC(N)CC3)nc12` [Compound 210]?
Answer: IC50 (CDK1/CycA2): > 10 µM; IC50 (CDK1/CycB1): > 10 µM; IC50 (CDK1/CycE1): > 10 µM; IC50 (CDK12 R722C/CycK): > 10 µM; IC50 (CDK12 wt/CycK): > 10 µM; IC50 (CDK13/CycK): > 10 µM; IC50 (CDK16/CycY): 3.96 µM; IC50 (CDK17/p35NCK): > 10 µM; IC50 (CDK19/CycC): > 10 µM; IC50 (CDK2/CycA2): 3.61 µM; IC50 (CDK2/CycD1): > 10 µM; IC50 (CDK20/CycH): > 10 µM; IC50 (CDK20/CycT1): > 10 µM; IC50 (CDK3/CycC): > 10 µM; IC50 (CDK3/CycE1): > 10 µM; IC50 (CDK4/CycD1): > 10 µM; IC50 (CDK4/CycD2): > 10 µM; IC50 (CDK4/CycD3): > 10 µM; IC50 (CDK5/p25NCK): > 10 µM; IC50 (CDK5/p35NCK): 4.79 µM; IC50 (CDK6/CycD1): > 10 µM; IC50 (CDK6/CycD2): > 10 µM; IC50 (CDK6/CycD3): > 10 µM; IC50 (CDK8/CycC): > 10 µM; IC50 (CDK9/CycK): > 10 µM
